Assay results as given in ChEMBL document CHEMBL6182910, “Design, Synthesis, and Biological Evaluation of 4-(Difluoromethyl)-1H-imidazole-5-carboxylic Acids/4-(3-Cyanophenoxy)pyrimidine-5-carboxylic Acids as P2Y1 Receptor Antagonists for Ischemic Stroke Treatment” (J Med Chem, 2025).
pIC50: −log10 of the molar value. Activity calls are given as the source filed them. No cut-off for these calls is given here.

Legend:
HT-22 [1] = assay: Neuroprotective activity against H2O2-induced oxidative stress in mouse HT-22 cells assessed as cell viability at 10 uM preincubated for 2 hrs followed by H2O2 addition measured after 24 hrs by MTT assay (reference value: 55 +/- 4.6 %); format: functional; conditions: time 26 hrs, read-out: Activity
HT-22 [2] = assay: Neuroprotective activity against H2O2-induced oxidative stress in mouse HT-22 cells assessed as increase in nuclear Nrf2 level at 10 uM preincubated for 2 hrs followed by H2O2 addition measured after 16 hrs by Western blot analysis; format: functional, cell-based; conditions: time 18.0 hrs
Plasma = assay: Anti-platelet aggregation in platelet-rich plasma of male male Sprague-Dawley rat assessed as inhibition of ADP-induced platelet aggregation preincubated for 15 mins followed by ADP addition measured up to 10 mins by Born's turbidometric method; format: functional, cell-free
[3] = target: P2Y purinoceptor 12 (Rattus norvegicus) (UniProt Q9EPX4); assay: Antagonist activity at P2Y12 receptor in platelet-rich plasma of male Sprague-Dawley rat assessed as inhibition of VASP phosphorylation at Ser239 at 30 uM pretreated for 10 mins followed by PGE1/ADP addition measured after 10 mins by ELISA relative to control; format: cell-free; conditions: time 20.0 min
P2Y purinoceptor 12 (Rattus norvegicus), sequence (Q9EPX4 whole entry): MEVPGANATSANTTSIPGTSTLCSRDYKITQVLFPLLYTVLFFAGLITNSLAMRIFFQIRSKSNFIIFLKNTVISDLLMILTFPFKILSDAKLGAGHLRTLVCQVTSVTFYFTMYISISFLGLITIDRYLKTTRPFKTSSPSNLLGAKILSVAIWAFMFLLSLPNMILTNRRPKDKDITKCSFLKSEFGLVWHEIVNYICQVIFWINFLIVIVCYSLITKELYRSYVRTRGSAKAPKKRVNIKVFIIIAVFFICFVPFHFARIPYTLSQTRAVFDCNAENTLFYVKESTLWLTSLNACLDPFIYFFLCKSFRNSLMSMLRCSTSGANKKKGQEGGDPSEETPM

[4] = target: P2Y purinoceptor 1 (Rattus norvegicus) (UniProt P49651); assay: Induction of thermal stabilization of P2Y1 receptor in rat platelet-rich plasma at 10 uM incubated for 30 mins followed by heat exposure at 48 to 62 degreeC for 10 mins by CETSA; format: cell-free; conditions: time 40.0 min
P2Y purinoceptor 1 (Rattus norvegicus), sequence (P49651 whole entry): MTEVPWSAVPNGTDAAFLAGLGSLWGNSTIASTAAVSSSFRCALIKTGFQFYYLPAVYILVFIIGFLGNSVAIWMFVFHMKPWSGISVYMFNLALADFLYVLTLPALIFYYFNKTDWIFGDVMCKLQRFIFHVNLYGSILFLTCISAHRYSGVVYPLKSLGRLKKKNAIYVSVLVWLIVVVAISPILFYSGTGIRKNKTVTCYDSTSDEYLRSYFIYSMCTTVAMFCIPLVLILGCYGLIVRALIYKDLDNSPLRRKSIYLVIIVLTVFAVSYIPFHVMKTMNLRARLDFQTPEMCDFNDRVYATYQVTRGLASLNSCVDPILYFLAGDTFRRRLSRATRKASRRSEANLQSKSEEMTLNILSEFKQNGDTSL

[5] = target: P2Y purinoceptor 1 (Rattus norvegicus) (UniProt P49651); assay: Induction of thermodynamic stability of P2Y1 receptor in rat platelet-rich plasma incubated for 30 mins followed by heat exposure at 61 degreeC for 10 mins by CETSA; format: cell-free; conditions: dose <= 100.0 µM, time 40.0 min
[6] = Metabolic stability in human liver microsomes assessed as parent compound remaining at 1 uM measured after 3 hrs in presence of NADPH by LC-MS/MS analysis; format: ADME, Microsome; conditions: read-out: Stability
CYP2A6 = target: T1, CYP2A6 (Homo sapiens, UniProt P11509); assay: Inhibition of CYP2A6 in human liver microsomes using coumarin as substrate at 10 uM preincubated for 5 min followed by NADPH addition measured after 120 mins by LC-MS/MS analysis relative to control; format: ADME, Microsome; conditions: probe coumarin, time 125 min
T1 sequence (P11509 whole entry): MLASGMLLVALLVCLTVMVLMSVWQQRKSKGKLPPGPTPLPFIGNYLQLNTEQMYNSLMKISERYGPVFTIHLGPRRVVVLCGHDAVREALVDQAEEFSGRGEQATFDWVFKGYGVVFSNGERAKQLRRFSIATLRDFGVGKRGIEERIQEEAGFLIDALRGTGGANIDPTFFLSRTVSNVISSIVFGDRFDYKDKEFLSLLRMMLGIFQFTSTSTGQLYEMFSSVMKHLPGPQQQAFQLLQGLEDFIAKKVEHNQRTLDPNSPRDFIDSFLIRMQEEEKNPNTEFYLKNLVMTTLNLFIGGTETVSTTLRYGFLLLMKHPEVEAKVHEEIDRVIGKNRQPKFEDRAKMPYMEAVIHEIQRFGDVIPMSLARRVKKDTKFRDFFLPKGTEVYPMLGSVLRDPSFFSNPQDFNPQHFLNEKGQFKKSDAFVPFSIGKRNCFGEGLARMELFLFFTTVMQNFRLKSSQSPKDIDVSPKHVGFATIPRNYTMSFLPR

CYP2E1 = CYP2E1 (Homo sapiens, UniProt P05181); assay: Inhibition of CYP2E1 in human liver microsomes using chlorzoxazone as substrate at 10 uM preincubated for 5 min followed by NADPH addition measured after 120 mins by LC-MS/MS analysis relative to control; format: ADME, Microsome; conditions: probe chlorzoxazone, time 125 min
CYP2E1, sequence (P05181 whole entry): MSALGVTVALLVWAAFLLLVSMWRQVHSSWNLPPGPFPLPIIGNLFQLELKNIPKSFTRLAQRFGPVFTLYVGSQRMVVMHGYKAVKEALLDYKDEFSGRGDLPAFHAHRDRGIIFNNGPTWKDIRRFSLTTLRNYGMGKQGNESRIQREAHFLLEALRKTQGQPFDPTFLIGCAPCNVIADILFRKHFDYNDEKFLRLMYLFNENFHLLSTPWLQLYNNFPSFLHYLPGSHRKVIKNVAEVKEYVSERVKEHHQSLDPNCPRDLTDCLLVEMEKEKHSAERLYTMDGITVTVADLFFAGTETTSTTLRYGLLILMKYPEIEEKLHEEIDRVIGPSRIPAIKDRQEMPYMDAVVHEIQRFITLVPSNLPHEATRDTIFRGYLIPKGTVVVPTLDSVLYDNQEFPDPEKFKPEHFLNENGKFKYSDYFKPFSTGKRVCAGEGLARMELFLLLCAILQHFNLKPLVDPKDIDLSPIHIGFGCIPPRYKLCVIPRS

CYP3A4 = CYP3A4 (Homo sapiens, UniProt P08684); assay: Inhibition of CYP3A4 in human liver microsomes using nifedipine as substrate at 10 uM preincubated for 5 min followed by NADPH addition measured after 120 mins by LC-MS/MS analysis relative to control; format: ADME, Microsome; conditions: probe nifedipine, time 125 min
CYP3A4, sequence (P08684 whole entry): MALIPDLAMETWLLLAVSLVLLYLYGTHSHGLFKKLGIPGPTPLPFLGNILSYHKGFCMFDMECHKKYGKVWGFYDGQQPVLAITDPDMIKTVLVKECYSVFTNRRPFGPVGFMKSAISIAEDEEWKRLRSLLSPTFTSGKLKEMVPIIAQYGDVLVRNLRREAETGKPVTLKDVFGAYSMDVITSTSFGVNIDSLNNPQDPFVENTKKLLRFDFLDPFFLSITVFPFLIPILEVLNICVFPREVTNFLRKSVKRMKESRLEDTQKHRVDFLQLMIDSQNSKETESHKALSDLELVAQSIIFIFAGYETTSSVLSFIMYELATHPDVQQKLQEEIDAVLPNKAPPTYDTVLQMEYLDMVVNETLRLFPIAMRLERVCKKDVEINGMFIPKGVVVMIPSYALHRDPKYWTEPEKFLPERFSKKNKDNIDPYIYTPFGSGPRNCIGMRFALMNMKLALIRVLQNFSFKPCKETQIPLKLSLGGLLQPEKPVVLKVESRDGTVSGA

[7] = Tmax male Sprague-Dawley rat at 10 mg/kg, iv measured up to 24 hrs by LC-MS/MS analysis; format: ADME, organism-based; conditions: in vivo
[8] = Ratio of AUC in brain to plasma of male Sprague-Dawley rat at 10 mg/kg, iv measured for 0.083 to 24 hrs by LC-MS/MS analysis; format: ADME, organism-based; conditions: brain and plasma, time 0.083-24 hrs, read-out: Ratio AUC
[9] = AUC in brain of male Kunming mouse at 10 mg/kg, iv measured for 0.083 to 24 hrs by LC-MS/MS analysis; format: ADME, organism-based; conditions: in vivo, time 0.083-24 hrs
Rattus norvegicus [10] = assay: Anti-platelet aggregation in Sprague-Dawley rat assessed as inhibition of ADP-induced platelet aggregation at 10 mg/kg, po measured for 15 mins in presence of 2.5 uM ADP by cell counter analysis relative to control; format: functional; conditions: 0.25 h
Rattus norvegicus [11] = assay: Anti-platelet aggregation in Sprague-Dawley rat assessed as inhibition of ADP-induced platelet aggregation at 10 mg/kg, po measured for 15 mins in presence of 5 uM ADP by cell counter analysis relative to control; format: functional; conditions: 0.25 h
Rattus norvegicus [12] = assay: Anti-platelet aggregation in Sprague-Dawley rat assessed as inhibition of ADP-induced platelet aggregation at 10 mg/kg, po measured for 15 mins in presence of 10 uM ADP by cell counter analysis relative to control; format: functional; conditions: 0.25 h
Rattus norvegicus [13] = assay: Neuroprotective activity in MCAO-induced brain damage Sprague-Dawley rat model assessed as reduction in brain water content at 2.5 to 10 mg/kg, iv administered immediately after arterial occlusion measured after 24 hrs; format: functional, organism-based; conditions: dose 2.5-10 mg/kg
Rattus norvegicus [14] = assay: Neuroprotective activity in MCAO-induced brain damage Sprague-Dawley rat model assessed as reduction in neurological deficit scores at 10 mg/kg, iv administered immediately after arterial occlusion measured after 24 hrs by Longa's method; format: functional, organism-based
Rattus norvegicus [15] = assay: Neuroprotective activity in MCAO-induced brain damage Sprague-Dawley rat model assessed as reduction in brain infarction size at 2.5 mg/kg, iv administered immediately after arterial occlusion measured after 24 hrs by TTC staining based analysis relative to control; format: functional; parameters: scale not given: the % may be the effect or the level left
Rattus norvegicus [16] = assay: Neuroprotective activity in MCAO-induced brain damage Sprague-Dawley rat model assessed as reduction in brain infarction size at 5 mg/kg, iv administered immediately after arterial occlusion measured after 24 hrs by TTC staining based analysis relative to control; format: functional; parameters: scale not given: the % may be the effect or the level left
Rattus norvegicus [17] = assay: Neuroprotective activity in MCAO-induced brain damage Sprague-Dawley rat model assessed as reduction in brain infarction size at 10 mg/kg, iv administered immediately after arterial occlusion measured after 24 hrs by TTC staining based analysis relative to control; format: functional; parameters: scale not given: the % may be the effect or the level left
Rattus norvegicus [18] = assay: Neuroprotective activity in MCAO-induced brain damage Sprague-Dawley rat model assessed as plasma MDA level at 2.5 to 10 mg/kg, iv administered immediately after arterial occlusion measured after 24 hrs (reference value: 51.7 %); format: functional; conditions: dose 2.5-10 mg/kg
Rattus norvegicus [19] = assay: Neuroprotective activity in MCAO-induced brain damage Sprague-Dawley rat model assessed as plasma MDA level at 2.5 to 10 mg/kg, iv administered immediately after arterial occlusion measured after 24 hrs (reference value: 7.93 nmol/ml); format: functional; conditions: dose 2.5-10 mg/kg

| SMILES | viability at 10 µM (HT-22 [1]) [%] | Activity (HT-22 [2]) | pIC50 (Plasma) | inhibition [3] [%] | Activity [4] | Activity [5] | remaining at 3 h, 1 µM [6] [%] | inhibition at 2 h, 10 µM (CYP2A6) [%] | inhibition at 2 h, 10 µM (CYP2E1) [%] | inhibition at 2 h, 10 µM (CYP3A4) [%] | Tmax [7] [min] | Kp [8] | AUC [9] [µg·h/g] | inhibition in vivo at 10 mg/kg (Rattus norvegicus [10]) [%] | inhibition in vivo at 10 mg/kg (Rattus norvegicus [11]) [%] | inhibition in vivo at 10 mg/kg (Rattus norvegicus [12]) [%] | Activity (Rattus norvegicus [13]) | Activity (Rattus norvegicus [14]) | Activity (Rattus norvegicus [15]) [%] | Activity (Rattus norvegicus [16]) [%] | also measured |
| --- | --- | --- | --- | --- | --- | --- | --- | --- | --- | --- | --- | --- | --- | --- | --- | --- | --- | --- | --- | --- | --- |
| N#Cc1cccc(-c2nc(C(F)F)c(C(=O)O)n2OCc2csc(N)n2)c1 | 90.7 | Active | 5.60 | 18.4 | Active | Dose-dependent-effect | 92.5 | -13.5 | 50.2 | 55.7 | 4.98 | 0.073 | 0.7 | 54.5 | 43.2 | 38.8 | Active; Water Content Did Not Return To Blank Level | Active; Activity Was Less Than Bptu | 40.6 | 45.9 | Activity (Rattus norvegicus [17]): 51.5%; Activity (Rattus norvegicus [18]): 32%; Activity (Rattus norvegicus [19]): 4.37 nmol/mL |
| N#Cc1cccc(Oc2nc(-c3cccc(C#N)c3)ncc2C(=O)O)c1 | 94.7 | Active | 5.55 | 29.3 | Active | Dose-dependent-effect | 76.9 | -17.7 | 36.4 | 51.7 | 4.98 | 0.25 | 12.81 | 66 | 47.6 | 37.2 | Active; Water Content Did Not Return To Blank Level; At 10 Mg/Kg, Compound Showed Comparable Effect To Bptu, Edaravone, Hnw001 | Active; Activity Was Less Than Bptu | 32 | 50.6 | Activity (Rattus norvegicus [17]): 74.2%; Activity (Rattus norvegicus [18]): 32%; Activity (Rattus norvegicus [19]): 4.37 nmol/mL |
